Test results reported in publication PMC11714206, “Massively Parallel Screening of Toll/Interleukin‐1 Receptor (TIR)‐Derived Peptides Reveals Multiple Toll‐Like Receptors (TLRs)‐Targeting Immunomodulatory Peptides” (Advanced Science, 2024).
Values belong to the sequence of their own block, whether it stands above or below them.

Target: T1, MAL^TIR (Homo sapiens, UniProt P58753)
T1 construct: MAL (residues 79–221); 6xHis; made in house; host or cells: E. coli BL21 (DE3)
Experiment: T‐Surf phage library (P8 and P3) selection against MAL^TIR, four rounds, NGS read counts
Format: binding
Details: for P3_MAL Rank (after) / P3_MAL Rank (before): P3 library; for Population: P3_MAL pool: P3 T-Surf phage library, 4th round of selection against MAL TIR, share of NGS reads; for P8_MAL Rank (after) / P8_MAL Rank (before): P8 library
In short: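 Library of 190 946 TIR‐derived peptides on P8 or P3 was panned on immobilized TIR domain coated at 5 µg mL^−1, BSA‐blocked, 1 h binding at RT, PBS/0.5% Tween‐20 washes, HCl elution, TG1 amplification. Fourth‐round pools were PCR‐barcoded, sequenced (100 bp paired‐end, Phred ≥30), and peptides ranked by read counts.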

[1] = 4R selection against MAL, rank after grouping
[2] = 4R selection against MAL, rank before grouping
[3] = selection against MAL TIR, rank by count after grouping
[4] = selection against MAL TIR, rank by count before grouping
[5] = selection against MAL, rank after grouping
[6] = selection against MAL, rank before grouping
[7] = P3_MAL: rank by count after grouping
[8] = P3_MAL: rank by count before grouping
[9] = selection against MAL, rank by count after grouping
[10] = selection against MAL, rank by count before grouping
[11] = P8_MAL: rank by count after grouping
[12] = P8_MAL: rank by count before grouping

T1 sequence (P58753 79-221): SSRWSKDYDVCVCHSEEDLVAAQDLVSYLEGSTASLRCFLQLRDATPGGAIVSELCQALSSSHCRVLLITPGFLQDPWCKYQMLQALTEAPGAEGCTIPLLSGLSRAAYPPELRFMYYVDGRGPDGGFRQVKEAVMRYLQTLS

Sequence: SSFCEGLWRLLELSTK
P3_MAL Rank (after) [3]: 234 | P3_MAL Rank (before) [4]: 3122

Sequence: SSFLSHLFDALQRKQI
P3_MAL Rank (after) [3]: 218 | P3_MAL Rank (before) [4]: 1020

Sequence: SSFRDGLWRLPELSKK
P3_MAL Rank (after) [3]: 246 | P3_MAL Rank (before) [4]: 3130

Sequence: SSFREDMWRRLELSQQ
P3_MAL Rank (after) [1]: 658 | P3_MAL Rank (before) [2]: 3188

Sequence: SSFREGIWRLLELRKK
Rank (after) [7]: 394 | Rank (before) [8]: 3183

Sequence: SSFREGLASAGTEQK
Rank (after) [7]: 156 | Rank (before) [8]: 1037

Sequence: SSFREGLGLLLELGKK
P3_MAL Rank (after) [5]: 535 | P3_MAL Rank (before) [6]: 3175

Sequence: SSFREGLLRLLELRKK
P3_MAL Rank (after) [3]: 265 | P3_MAL Rank (before) [4]: 3138

Sequence: SSFREGLRRMLELTKI
P3_MAL Rank (after) [5]: 515 | P3_MAL Rank (before) [6]: 3176

Sequence: SSFREGLSPLAELSGK
Rank (after) [7]: 464 | Rank (before) [8]: 3174

Sequence: SSFREGLWHLLELTKT
P3_MAL Rank (after) [5]: 525 | P3_MAL Rank (before) [6]: 3171

Sequence: SSFREGLWRLLALSTN
P3_MAL Rank (after) [9]: 723 | P3_MAL Rank (before) [10]: 3142

Sequence: SSFREGLWRLLDLSKQ
P3_MAL Rank (after) [9]: 732 | P3_MAL Rank (before) [10]: 3144

Sequence: SSFREGLWRLLELIKK
Population: 0.00488%

Sequence: SSFREGLWRLLELRQK
P3_MAL Rank (after) [3]: 276 | P3_MAL Rank (before) [4]: 3147

Sequence: SSFREGLWRLLELSNE
Rank (after) [7]: 153 | Rank (before) [8]: 1027

Sequence: SSFREGLWRLPELSKK
Population: 0.00413%

Sequence: SSFREGLWRLRELGKK
P3_MAL Rank (after) [1]: 622 | P3_MAL Rank (before) [2]: 3161

Sequence: SSFREGLWRLRGLSKK
P3_MAL Rank (after) [3]: 232 | P3_MAL Rank (before) [4]: 3160

Sequence: SSFREGLWRRLELSKK
Population: 0.00488%

Sequence: SSFREGLWRWRELRKK
P3_MAL Rank (after) [5]: 504 | P3_MAL Rank (before) [6]: 3170

Sequence: SSFREGRWRLPEVSKT
Rank (after) [7]: 448 | Rank (before) [8]: 3119

Sequence: SSFRERLWRLLELRKK
Rank (after) [7]: 128 | Rank (before) [8]: 3190

Sequence: SSFRVGLCRLMALIQQ
P3_MAL Rank (after) [9]: 685 | P3_MAL Rank (before) [10]: 3125

Sequence: SSFTSHLYDRLQRSGI
P3_MAL Rank (after) [3]: 224 | P3_MAL Rank (before) [4]: 3203

Sequence: SSLREGLLRLQELSKK
P3_MAL Rank (after) [9]: 713 | P3_MAL Rank (before) [10]: 3205

Sequence: SSLREVLWRLLELSKK
Rank (after) [7]: 178 | Rank (before) [8]: 3204

Sequence: TFFSQQLNTVVHTAIL
P8_MAL Rank (after) [9]: 697 | P8_MAL Rank (before) [10]: 2542

Sequence: TFHSHLYNALVQAGIH
P8_MAL Rank (after) [9]: 678 | P8_MAL Rank (before) [10]: 2634

Sequence: TFLAICIMRWCRRAF
Rank (after) [11]: 99 | Rank (before) [12]: 718

Sequence: TFLATLYNALAQAGIH
Rank (after) [11]: 449 | Rank (before) [12]: 2620

Sequence: TFLCHLYSTLVQARIH
Rank (after) [11]: 402 | Rank (before) [12]: 2546

Sequence: TFLCHQYNALVQAGIH
P8_MAL Rank (after) [3]: 219 | P8_MAL Rank (before) [4]: 2547

Sequence: TFLDTLLNKLAQAAIH
Rank (after) [11]: 470 | Rank (before) [12]: 2626

Sequence: TFLGAQHKTVVRAATH
P8_MAL Rank (after) [5]: 524 | P8_MAL Rank (before) [6]: 2534

Sequence: TFLGHLHNALVQAGNH
Rank (after) [11]: 432 | Rank (before) [12]: 2608

The remaining lines, values ahead:

P3_MAL Rank (after) [1]: 635 | P3_MAL Rank (before) [2]: 3210
Sequence: SSCREGLWRLLELCKK

P3_MAL Rank (after) [3]: 269 | P3_MAL Rank (before) [4]: 3129
Sequence: SSFRDGLWRLLELRKK

P3_MAL Rank (after) [5]: 491 | P3_MAL Rank (before) [6]: 3187
Sequence: SSFREDLWRLRERSKQ

Population: 0.00488%
Sequence: SSFREGLWRLLELNKK

Rank (after) [7]: 131 | Rank (before) [8]: 369
Sequence: SSFREGLWRLLELSK

P3_MAL Rank (after) [9]: 680 | P3_MAL Rank (before) [10]: 3140
Sequence: SSFREGLWRLLGLIKK

P3_MAL Rank (after) [1]: 593 | P3_MAL Rank (before) [2]: 3169
Sequence: SSFREGLWRLMELSNK

Rank (after) [7]: 430 | Rank (before) [8]: 3163
Sequence: SSFREGLWRLPELCKK

P3_MAL Rank (after) [9]: 748 | P3_MAL Rank (before) [10]: 3167
Sequence: SSFREGLWRPPELSEK

Rank (after) [7]: 463 | Rank (before) [8]: 3196
Sequence: SSFRKGLCRLLELSKK

Rank (after) [7]: 419 | Rank (before) [8]: 3195
Sequence: SSFRNDLWRLLELSKK

P3_MAL Rank (after) [1]: 594 | P3_MAL Rank (before) [2]: 3202
Sequence: SSFSEGLWRRLELSKK

P8_MAL Rank (after) [3]: 279 | P8_MAL Rank (before) [4]: 2529
Sequence: SSWWILKELQEILNYQ

Rank (after) [11]: 400 | Rank (before) [12]: 2621
Sequence: TFLDRLYNPLVHAGIH

P8_MAL Rank (after) [9]: 724 | P8_MAL Rank (before) [10]: 2549
Sequence: TFLGFLYIALVQAGFL

P8_MAL Rank (after) [5]: 508 | P8_MAL Rank (before) [6]: 2607
Sequence: TFLGHLLNALVQTDIL
